From ChEMBL document CHEMBL5500404, “Discovery and Development of NLRP3 Inhibitors Targeting the LRR Domain to Disrupt NLRP3-NEK7 Interaction for the Treatment of Rheumatoid Arthritis” (J Med Chem, 2024)
Active and inactive are the calls of the source. The rule behind the calls is not given here.

Legend:
Rattus norvegicus [1] = assay: (§1) Anti-inflammatory activity against complete Freund's adjuvant (CFA)-induced arthritis rat model assessed as decrease in spleen size at 20 to 80 mg/kg, ip treated after 17 days of CFA challenge measured after 18 days (day 17 to 34) relative to model group; format: functional, organism-based; conditions: dose 20-80 mg/kg, time 18.0 day
Rattus norvegicus [2] = assay: as §1, with “reduction” for “decrease”, “IL-1beta in rat synovium from the left rear ankle” for “spleen size”, “34) by immunofluorescence based assay” for “34)”; format: functional, organism-based; conditions: dose 20-80 mg/kg, time 18.0 day
THP-M [3] = assay: Inhibition of NLRP3 and […] protein-protein interaction in human THP-M cells assessed as suppression activation of NLRP3 inflammasome by affecting ASC oligomerization at 10 to 50 uM pretreated for 24 hrs followed by stimulated with LPS for 3 hrs and ATP for 1 hr by co-IP analysis; format: cell-based; conditions: dose 10-50 µM, time 28.0 hrs
[4] = AUC (0 to infinity) in Sprague-Dawley rat at 20 mg/kg, IG measured upto 1440 mins by LC-MS/MS analysis; format: ADME, organism-based; conditions: in vivo, po
[5] = Cytotoxicity against human THP-1 cells assessed as cellular proliferation inhibition measured after 48 hrs by MTT assay; format: toxicity, cell-based
Rattus norvegicus [6] = assay: as §1, with “synovial hyperplasia” for “decrease”, “rat synovium from the left rear ankle” for “spleen size”, “34) by H and E staining based assay” for “34)”; format: functional, organism-based; conditions: dose 20-80 mg/kg, time 18.0 day
THP-M [7] = assay: Reduction of reactive oxygen species production in human THP-M cells pretreated for 24 hrs followed by stimulated with LPS for 3 hrs and ATP for 1 hr by Mitochondrial damage experiment; format: functional, cell-based; conditions: time 28.0 hrs
THP-M [8] = assay: Effect on transcription of NLRP3 in LPS-induced human THP-M cells assessed as NLRP3 mRNA expression at 10 to 50 uM pretreated for 24 hrs followed by stimulated with LPS for 4 hrs by qRT-PCR analysis; format: functional, cell-based; conditions: dose 10-50 µM, time 28.0 hrs
[9] = Tmax in Sprague-Dawley rat at 20 mg/kg, IG measured upto 1440 mins by LC-MS/MS analysis; format: ADME, organism-based; conditions: in vivo, po
[10] = Bioavailability in Sprague-Dawley rat at 20 mg/kg, ip measured upto 720 mins by LC-MS/MS analysis; format: ADME, organism-based; conditions: in vivo
THP-M [11] = assay: Induction of mitochondrial membrane potential loss in human THP-M cells pretreated for 24 hrs followed by stimulated with LPS for 3 hrs and ATP for 1 hr by Mitochondrial damage experiment; format: functional, cell-based; conditions: time 28.0 hrs
[12] = AUC (0 to infinity) in Sprague-Dawley rat at 20 mg/kg, ip measured upto 720 mins by LC-MS/MS analysis; format: ADME, organism-based; conditions: in vivo, 12 h
THP-M [13] = assay: Effect on ASC (apoptosis-related speck-like protein containing a CARD) level in LPS/nigericin-induced human THP-M cells assessed as inhibition of pro-IL-1beta level at 20 to 60 uM pretreated for 24 hrs followed by stimulated with LPS for 3 hrs and ATP for 1 hr by Western blot analysis relative to control; format: functional, cell-based; conditions: dose 20-60 µM, time 28.0 hrs
[14] = molecular target: NLR family CARD domain-containing protein 4 (Homo sapiens) (UniProt Q9NPP4); assay: Inhibition of NLRC4 inflammasome in flagellin of Salmonella typhimurium-induced human THP-M cells assessed as inhibition of IL-1beta level at 20 to 60 uM pretreated for 24 hrs followed by stimulated with LPS by ELISA; format: cell-based; conditions: dose 20-60 µM
Chain of NLR family CARD domain-containing protein 4 (Homo sapiens) (Q9NPP4 whole entry, the tested form may be a part): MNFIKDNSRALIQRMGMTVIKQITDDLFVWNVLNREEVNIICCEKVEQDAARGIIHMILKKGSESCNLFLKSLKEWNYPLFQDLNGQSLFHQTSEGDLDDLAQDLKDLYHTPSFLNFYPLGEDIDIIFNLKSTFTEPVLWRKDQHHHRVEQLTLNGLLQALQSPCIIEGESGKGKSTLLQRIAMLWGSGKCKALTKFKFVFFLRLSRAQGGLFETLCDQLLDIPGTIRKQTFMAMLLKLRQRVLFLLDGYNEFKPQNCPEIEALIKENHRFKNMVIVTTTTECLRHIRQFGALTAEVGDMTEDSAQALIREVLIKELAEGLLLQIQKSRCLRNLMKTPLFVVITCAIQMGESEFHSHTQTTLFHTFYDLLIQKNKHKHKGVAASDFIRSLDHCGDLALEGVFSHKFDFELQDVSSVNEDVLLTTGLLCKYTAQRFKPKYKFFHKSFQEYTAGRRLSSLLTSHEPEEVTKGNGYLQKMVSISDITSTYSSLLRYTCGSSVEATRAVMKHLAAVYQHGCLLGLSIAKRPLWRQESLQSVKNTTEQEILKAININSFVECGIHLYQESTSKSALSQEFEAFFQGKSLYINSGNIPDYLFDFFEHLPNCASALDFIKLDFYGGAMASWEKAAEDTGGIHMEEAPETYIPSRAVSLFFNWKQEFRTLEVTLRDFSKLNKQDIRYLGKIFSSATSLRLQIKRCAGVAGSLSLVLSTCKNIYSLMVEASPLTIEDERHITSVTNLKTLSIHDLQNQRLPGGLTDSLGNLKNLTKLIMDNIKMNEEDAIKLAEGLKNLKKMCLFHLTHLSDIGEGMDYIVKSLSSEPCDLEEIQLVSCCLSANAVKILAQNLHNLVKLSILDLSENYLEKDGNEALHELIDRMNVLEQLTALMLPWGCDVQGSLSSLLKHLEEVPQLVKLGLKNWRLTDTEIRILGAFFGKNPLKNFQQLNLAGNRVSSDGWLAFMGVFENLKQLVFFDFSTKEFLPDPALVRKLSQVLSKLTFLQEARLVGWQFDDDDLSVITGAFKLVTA

Rattus norvegicus [15] = assay: (§2) Anti-inflammatory activity against complete Freund's adjuvant (CFA)-induced arthritis rat model assessed as decrease in serum IL-1beta level at 20 to 80 mg/kg, ip treated after 17 days of CFA challenge measured after 18 days (day 17 to 34) by ELISA relative to model group; format: functional, organism-based; conditions: dose 20-80 mg/kg, time 18.0 day
Rattus norvegicus [16] = assay: Anti-inflammatory activity against complete Freund's adjuvant (CFA)-induced arthritis rat model assessed as reduction in body weight at 20 to 80 mg/kg, ip treated after 17 days of CFA challenge measured after 18 days (day 17 to 34) relative to control; format: functional, organism-based; conditions: dose 20-80 mg/kg, time 18.0 day
[17] = Apparent clearance during terminal phase in Sprague-Dawley rat at 20 mg/kg, IG measured upto 1440 mins by LC-MS/MS analysis; format: ADME, organism-based; conditions: in vivo, po
[18] = Half life in Sprague-Dawley rat at 20 mg/kg, IG measured upto 1440 mins by LC-MS/MS analysis; format: ADME, organism-based; conditions: in vivo, po
Rattus norvegicus [19] = assay: Anti-inflammatory activity against complete Freund's adjuvant (CFA)-induced arthritis rat model assessed as recovery in degree of swelling in right hind paw at 20 to 80 mg/kg, ip treated after 17 days of CFA challenge measured after 18 days (day 17 to 34) relative to control; format: functional, organism-based; conditions: dose 20-80 mg/kg, time 18.0 day
[20] = MRT (0 to infinity) in Sprague-Dawley rat at 20 mg/kg, ip measured upto 720 mins by LC-MS/MS analysis; format: ADME, organism-based; conditions: in vivo
Rattus norvegicus [21] = assay: as §1, with “reduction” for “decrease”, “NLRP3 in rat synovium from the left rear ankle” for “spleen size”, “34) by immunohistochemistry based assay” for “34)”; format: functional, organism-based; conditions: dose 20-80 mg/kg, time 18.0 day
Rattus norvegicus [22] = assay: as §2, with “reduction” for “decrease”, “in” for “in serum”, “in rat synovium from the left rear ankle” for “level”, “immunohistochemistry based assay” for “ELISA”; format: functional, organism-based; conditions: dose 20-80 mg/kg, time 18.0 day
Rattus norvegicus [23] = assay: Anti-inflammatory activity against complete Freund's adjuvant (CFA)-induced arthritis rat model assessed as decrease in thymus size at 20 to 80 mg/kg, ip treated after 17 days of CFA challenge measured after 18 days (day 17 to 34) relative to model group; format: functional, organism-based; conditions: dose 20-80 mg/kg, time 18.0 day
[24] = Half life in Sprague-Dawley rat at 20 mg/kg, ip measured upto 720 mins by LC-MS/MS analysis; format: ADME, organism-based; conditions: in vivo
[25] = molecular target: T1, Interferon-inducible protein AIM2 (Homo sapiens) (UniProt O14862); assay: Inhibition of AIM2 inflammasome in poly(DA:DT)-induced human THP-M cells assessed as inhibition of IL-1beta level at 20 to 60 uM pretreated for 24 hrs followed by stimulated with LPS by ELISA; format: cell-based; conditions: dose 20-60 µM
T1 sequence (whole entry): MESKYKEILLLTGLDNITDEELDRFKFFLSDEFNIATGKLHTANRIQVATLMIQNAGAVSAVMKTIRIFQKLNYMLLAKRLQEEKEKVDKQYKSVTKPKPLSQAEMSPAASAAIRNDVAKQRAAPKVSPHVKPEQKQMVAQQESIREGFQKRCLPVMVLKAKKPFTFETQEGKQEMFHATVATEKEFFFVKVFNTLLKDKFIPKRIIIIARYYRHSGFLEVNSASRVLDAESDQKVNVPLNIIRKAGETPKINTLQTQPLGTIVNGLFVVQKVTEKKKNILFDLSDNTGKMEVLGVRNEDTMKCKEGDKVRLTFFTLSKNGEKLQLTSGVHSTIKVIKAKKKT

COCCCNC(=O)c1ccc(Cn2c(SCC3CCCCC3)nc3ccncc32)cc1
Activity (Rattus norvegicus [1]): Active
Activity (Rattus norvegicus [2]): Active
inhibition (THP-M [3]): Dose-Dependent Effect
AUC(0-inf) [4]: 867 ng·h/mL
IC50 at 48 h [5]: > 100 µM
Activity (Rattus norvegicus [6]): Active
Activity (THP-M [7]): inactive
Activity (THP-M [8]): inactive
Tmax [9]: 16.7 min
bioavailability [10]: 11.5%
Activity (THP-M [11]): inactive
AUC [12]: 112685 ng·min/mL
inhibition (THP-M [13]): inactive
inhibition [14]: inactive
Activity (Rattus norvegicus [15]): Active
Activity (Rattus norvegicus [16]): Active
CL/F [17]: 410 mL/min/kg
half-life [18]: 128 min
Activity (Rattus norvegicus [19]): Active
MRT inf [20]: 44.5 min
Activity (Rattus norvegicus [21]): Active
Activity (Rattus norvegicus [22]): Active
Activity (Rattus norvegicus [23]): Active
half-life [24]: 44.1 min
inhibition [25]: inactive
